In ChEMBL document CHEMBL2069259, “Preclinical strategy to reduce clinical hepatotoxicity using in vitro bioactivation data for >200 compounds” (Chem Res Toxicol, 2012):
Starred links: 1 amine or outer side, 2 acyl side, 3 side chain; linkers in the order of their positions; H or OH if unused. Positions of bridges follow the written chain, without caps; N, C: chain ends. Non-standard residues stand in square brackets, D forms with d. Residues, ends and D or L forms follow the SMILES beside them. Chains are numbered I, II in the order given. Actinocin(9to1) = Cc1c2oc3c(C)ccc(C(=O)[*:1])c3nc-2c(C(=O)[*:2])c(N)c1=O; NMeV = CN[C@H](C(=O)O)C(C)C; Sar = CNCC(=O)O

Assays:
[1] = target: T1, CYP1A2 (Homo sapiens, UniProt P05177); assay: Inhibition of human CYP1A2 assessed as ratio of IC50 in absence of NADPH to IC50 for presence of NADPH using ethoxyresorufin as substrate after 30 mins
T1 sequence (P05177 whole entry): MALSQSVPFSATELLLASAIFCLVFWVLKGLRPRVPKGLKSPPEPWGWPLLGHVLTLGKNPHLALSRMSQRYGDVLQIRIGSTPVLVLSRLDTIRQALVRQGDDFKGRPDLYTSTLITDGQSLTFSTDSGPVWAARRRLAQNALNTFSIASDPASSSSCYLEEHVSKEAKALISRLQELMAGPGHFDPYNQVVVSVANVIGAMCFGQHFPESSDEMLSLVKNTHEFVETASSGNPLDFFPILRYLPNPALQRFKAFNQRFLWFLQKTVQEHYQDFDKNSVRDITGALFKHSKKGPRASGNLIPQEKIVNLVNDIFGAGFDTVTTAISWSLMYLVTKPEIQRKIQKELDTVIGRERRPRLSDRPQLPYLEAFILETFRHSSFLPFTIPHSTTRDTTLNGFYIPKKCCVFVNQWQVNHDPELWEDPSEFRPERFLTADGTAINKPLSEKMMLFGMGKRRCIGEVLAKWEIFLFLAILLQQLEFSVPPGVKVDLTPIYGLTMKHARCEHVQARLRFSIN

[2] = target: CYP2D6 (Homo sapiens, UniProt P10635); assay: Inhibition of human CYP2D6 assessed as ratio of IC50 in absence of NADPH to IC50 for presence of NADPH using 4-methylaminoethyl-7-methoxycoumarin as substrate after 30 mins
CYP2D6, sequence (P10635 whole entry): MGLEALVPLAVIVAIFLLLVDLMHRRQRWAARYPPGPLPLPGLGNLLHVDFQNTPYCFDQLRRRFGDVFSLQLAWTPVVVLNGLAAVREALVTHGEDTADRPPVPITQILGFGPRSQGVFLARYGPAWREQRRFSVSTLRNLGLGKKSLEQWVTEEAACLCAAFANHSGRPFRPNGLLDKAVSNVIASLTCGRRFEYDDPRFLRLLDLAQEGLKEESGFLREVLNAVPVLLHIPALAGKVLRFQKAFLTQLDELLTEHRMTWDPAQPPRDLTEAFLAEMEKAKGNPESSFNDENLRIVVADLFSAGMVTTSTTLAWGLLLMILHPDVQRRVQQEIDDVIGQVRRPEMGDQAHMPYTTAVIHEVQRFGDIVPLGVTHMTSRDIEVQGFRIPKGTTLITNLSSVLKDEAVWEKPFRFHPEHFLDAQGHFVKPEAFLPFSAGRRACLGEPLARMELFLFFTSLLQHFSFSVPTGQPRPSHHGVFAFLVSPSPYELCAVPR

[3] = system: Liver microsomes; assay: Metabolic stability in human liver microsomes assessed as GSH adduct formation at 100 uM after 90 mins by HPLC-MS analysis; details: 1.5 h
[4] = target: CYP2C9 (Homo sapiens, UniProt P11712); assay: Inhibition of human CYP2C9 assessed as ratio of IC50 in absence of NADPH to IC50 for presence of NADPH using 7-methoxy-4-trifluoromethylcoumarin-3-acetic acid as substrate after 30 mins
CYP2C9, sequence (P11712 whole entry): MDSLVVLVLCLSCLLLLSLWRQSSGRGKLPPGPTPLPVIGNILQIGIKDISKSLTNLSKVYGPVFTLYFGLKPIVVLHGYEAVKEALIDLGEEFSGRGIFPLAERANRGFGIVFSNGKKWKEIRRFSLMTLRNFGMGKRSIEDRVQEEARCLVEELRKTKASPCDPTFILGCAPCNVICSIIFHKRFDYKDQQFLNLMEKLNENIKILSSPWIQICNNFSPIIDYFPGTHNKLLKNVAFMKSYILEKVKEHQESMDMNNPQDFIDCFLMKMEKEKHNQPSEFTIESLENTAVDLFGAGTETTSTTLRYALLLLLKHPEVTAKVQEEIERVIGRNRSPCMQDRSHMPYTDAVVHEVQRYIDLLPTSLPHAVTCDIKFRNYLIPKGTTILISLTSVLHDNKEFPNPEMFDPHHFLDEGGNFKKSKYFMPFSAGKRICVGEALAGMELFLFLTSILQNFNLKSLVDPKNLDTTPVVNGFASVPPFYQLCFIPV

[5] = target: CYP2C19 (Homo sapiens, UniProt P33261); assay: Inhibition of human CYP2C19 assessed as ratio of IC50 in absence of NADPH to IC50 for presence of NADPH using 3-butyryl-7-methoxycoumarin as substrate after 30 mins
CYP2C19, sequence (P33261 whole entry): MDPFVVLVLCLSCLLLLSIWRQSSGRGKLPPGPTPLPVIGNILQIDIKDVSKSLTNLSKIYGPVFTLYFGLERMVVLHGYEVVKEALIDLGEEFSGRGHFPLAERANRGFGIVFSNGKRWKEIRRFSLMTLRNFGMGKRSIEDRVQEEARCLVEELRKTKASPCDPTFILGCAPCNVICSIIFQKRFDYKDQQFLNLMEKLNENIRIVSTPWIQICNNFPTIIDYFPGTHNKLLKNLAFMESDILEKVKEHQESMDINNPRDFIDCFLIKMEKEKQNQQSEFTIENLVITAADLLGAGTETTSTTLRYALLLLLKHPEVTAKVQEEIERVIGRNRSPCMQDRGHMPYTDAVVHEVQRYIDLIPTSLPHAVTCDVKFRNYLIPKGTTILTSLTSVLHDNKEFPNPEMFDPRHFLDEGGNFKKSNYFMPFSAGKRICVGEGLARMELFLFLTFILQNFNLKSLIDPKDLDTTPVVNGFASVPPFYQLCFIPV

[6] = target: T2, CYP3A4 (Homo sapiens, UniProt P08684); assay: Inhibition of human CYP3A4 assessed as ratio of IC50 in absence of NADPH to IC50 for presence of NADPH using diethoxyfluorescein as substrate after 30 mins
T2 sequence (P08684 whole entry): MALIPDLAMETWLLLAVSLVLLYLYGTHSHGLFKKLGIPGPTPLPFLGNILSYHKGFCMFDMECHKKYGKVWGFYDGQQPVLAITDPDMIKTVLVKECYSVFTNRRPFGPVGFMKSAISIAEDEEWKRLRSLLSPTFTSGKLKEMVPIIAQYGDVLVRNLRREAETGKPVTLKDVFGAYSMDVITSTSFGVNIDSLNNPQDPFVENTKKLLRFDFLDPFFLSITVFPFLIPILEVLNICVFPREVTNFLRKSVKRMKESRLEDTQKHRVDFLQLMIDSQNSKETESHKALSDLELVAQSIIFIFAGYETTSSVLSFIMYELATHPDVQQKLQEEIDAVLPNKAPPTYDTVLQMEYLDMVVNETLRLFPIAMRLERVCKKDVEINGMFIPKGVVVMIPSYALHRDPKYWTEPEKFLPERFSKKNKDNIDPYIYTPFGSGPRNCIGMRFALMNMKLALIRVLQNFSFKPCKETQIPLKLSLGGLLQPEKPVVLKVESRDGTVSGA

[7] = system: Liver microsomes; assay: Metabolic stability in human liver microsomes assessed as high signal/noise ratio (S/N of >100) by measuring GSH adduct formation at 100 uM after 90 mins by HPLC-MS analysis; details: 1.5 h
[8] = target: T2, CYP3A4; assay: Inhibition of human CYP3A4 assessed as ratio of IC50 in absence of NADPH to IC50 for presence of NADPH using 7-benzyloxyquinoline as substrate after 30 mins
[9] = system: Liver microsomes; details: human, 1.5 h, 100 µM
[10] = probe 7-methoxy-4-trifluoromethylcoumarin-3-acetic acid
[11] = probe 3-butyryl-7-methoxycoumarin
[12] = probe 4-methylaminoethyl-7-methoxycoumarin

In the case of `Clc1ccccc1C(c1ccccc1)(c1ccccc1)n1ccnc1` [CLOTRIMAZOLE], the IC50 shift at 0.5 h [1] is reported as 2, the IC50 shift at 0.5 h [2] is reported as under 2 and the Stability [3] is reported as “Stable”.
In the case of `CC(COc1ccccc1)N(CCCl)Cc1ccccc1` (centres undefined) [PHENOXYBENZAMINE], the IC50 shift at 0.5 h ([1]; probe ethoxyresorufin) is reported as 2, the IC50 shift at 0.5 h [4, 10] is reported as under 2 and the IC50 shift at 0.5 h [5, 11] is reported as 2. For the same compound, the IC50 shift at 0.5 h ([6]; probe diethoxyfluorescein) was 2 and the Stability [7] was “Unstable”.
In the case of `Cc1c2oc3c(C)ccc(C(=O)N[C@@H]4C(=O)N[C@H](C(C)C)C(=O)N5CCC[C@H]5C(=O)N(C)CC(=O)N(C)[C@@H](C(C)C)C(=O)O[C@@H]4C)c3nc-2c(C(=O)N[C@@H]2C(=O)N[C@H](C(C)C)C(=O)N3CCC[C@H]3C(=O)N(C)CC(=O)N(C)[C@@H](C(C)C)C(=O)O[C@@H]2C)c(N)c1=O` [DACTINOMYCIN] (I: T[dV]P[Sar][NMeV] / II: T[dV]P[Sar][NMeV]; ester I:1-I:C, II:1-II:C; linker I:N-II:N via Actinocin(9to1)), the IC50 shift at 0.5 h [4, 10] is reported as 2, the IC50 shift at 0.5 h [5, 11] is reported as under 2 and the IC50 shift at 0.5 h ([8]; probe 7-benzyloxyquinoline) is reported as 2. The Stability [3] was “Stable”.
With `O=C(O)COc1ccc(C(=O)c2cccs2)c(Cl)c1Cl` the IC50 shift at 0.5 h [4] was 2, the IC50 shift at 0.5 h [5] was under 2 and the Stability [3] was “Stable”.
`CC(C)C(=O)Nc1ccc([N+](=O)[O-])c(C(F)(F)F)c1` [FLUTAMIDE] gave an IC50 shift at 0.5 h [1] of under 2, an IC50 shift at 0.5 h [2] of under 2 and an IC50 shift at 0.5 h [6] of under 2. For the same compound, the Stability [9] was “Unstable”.
`CC1=C(/C=C/C(C)=C/C=C/C(C)=C/C(=O)O)C(C)(C)CCC1` [TRETINOIN] was tested, and the IC50 shift at 0.5 h ([1]; probe ethoxyresorufin) was under 2, the IC50 shift at 0.5 h [5, 11] was 2 and the IC50 shift at 0.5 h [2, 12] was 2. The IC50 shift at 0.5 h ([6]; probe diethoxyfluorescein) was 2, the IC50 shift at 0.5 h ([8]; probe 7-benzyloxyquinoline) was over 5 and the Stability [3] was “Stable”.
Compound `C1CCC(C(CC2CCCCN2)C2CCCCC2)CC1` (centres undefined) [PERHEXILINE] has an IC50 shift at 0.5 h [4] of under 2.
For `Nc1c2c(nc3ccccc13)CCCC2` [TACRINE], the IC50 shift at 0.5 h [4] was 2, the IC50 shift at 0.5 h [5] was under 2 and the Stability [3] was “Stable”.
For `COCCCC/C(=N\OCCN)c1ccc(C(F)(F)F)cc1` [FLUVOXAMINE], the IC50 shift at 0.5 h ([1]; probe ethoxyresorufin) was under 2, the IC50 shift at 0.5 h [2, 12] was 2 and the Stability [7] was “Unstable”.
In the case of `CNCCC(Oc1ccc(C(F)(F)F)cc1)c1ccccc1` (centres undefined) [FLUOXETINE], the IC50 shift at 0.5 h [4] is reported as 2, the IC50 shift at 0.5 h [5] is reported as over 5 and the IC50 shift at 0.5 h [6] is reported as 2. For the same compound, the IC50 shift at 0.5 h [8] was over 5 and the Stability [3] was “Stable”.
Work on `NNCCc1ccccc1` [PHENELZINE] yielded an IC50 shift at 0.5 h [1] of 2, an IC50 shift at 0.5 h [4] of 2 and an IC50 shift at 0.5 h [5] of over 5. The IC50 shift at 0.5 h [2] was over 5, the IC50 shift at 0.5 h [6] was 2 and the Stability [9] was “Unstable”.
Work on `CCN(CC)CC#CCOC(=O)C(O)(c1ccccc1)C1CCCCC1` (centres undefined) [OXYBUTYNIN] yielded an IC50 shift at 0.5 h [1] of over 2, an IC50 shift at 0.5 h [4] of under 2 and an IC50 shift at 0.5 h [5] of over 5. For the same compound, the Stability [7] was “Unstable”.
`Oc1ccc2c3c1O[C@H]1[C@@H](O)CC[C@@]4(O)[C@@H](C2)N(CC2CCC2)CC[C@]314` [NALBUPHINE] was tested, and the IC50 shift at 0.5 h [4] was 2 and the Stability [3] was “Stable”.
With `CC(C)OC(=O)C(C)(C)Oc1ccc(C(=O)c2ccc(Cl)cc2)cc1` [FENOFIBRATE] the IC50 shift at 0.5 h [1] was over 5, the IC50 shift at 0.5 h [5] was under 2 and the IC50 shift at 0.5 h [2] was 2. For the same compound, the IC50 shift at 0.5 h [6] was under 2 and the Stability [3] was “Stable”.
